Reference: ChEMBL document CHEMBL1201862, “PubChem BioAssay data set” (2004)
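Interpolation was linear, between the two tested concentrations surrounding the appropriate level; five concentrations were tested over 48 hours in 96-well plates. Abbreviation: GI50, concentration required for 50% inhibition of growth.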 Calls of active or inactive are those of the source. No stated cut-off is given here; in the data, active = GI50 up to about 1.1 µM and inactive = higher.

Legend:
Test in all cases: NCI anticancer screen, dose series, 48 h
KM12 = test system: KM12
NCI-H23 = test system: NCI-H23
786-0 = test system: 786-0
SF-295 = test system: SF-295
PC-3 = test system: PC-3
SK-MEL-5 = test system: SK-MEL-5
DU-145 = test system: DU-145
SK-OV-3 = test system: SK-OV-3
NCI-H226 = test system: NCI-H226
HCC 2998 = test system: HCC 2998
A549 = test system: A549
CCRF-CEM = test system: CCRF-CEM
UACC-62 = test system: UACC-62
ACHN = test system: ACHN
MOLT-4 = test system: MOLT-4
OVCAR-4 = test system: OVCAR-4
NCI-H522 = test system: NCI-H522
Hs-578T = test system: Hs-578T
MCF7 = test system: MCF7
MDA-MB-231 = test system: MDA-MB-231
BT-549 = test system: BT-549
RPMI-8226 = test system: RPMI-8226
SN12C = test system: SN12C
SNB-19 = test system: SNB-19
U-251 = test system: U-251
MDA-MB-435 = test system: MDA-MB-435
RXF 393 = test system: RXF 393
COLO 205 = test system: COLO 205
SR = test system: SR
HOP-62 = test system: HOP-62
OVCAR-8 = test system: OVCAR-8
HCT-116 = test system: HCT-116
NCI-H460 = test system: NCI-H460
SF-268 = test system: SF-268
M14 = test system: M14
EKVX = test system: EKVX
MDA-N = test system: MDA-N
NCI/ADR-RES = test system: NCI/ADR-RES
SK-MEL-28 = test system: SK-MEL-28
HT-29 = test system: HT-29
HCT-15 = test system: HCT-15
SW-620 = test system: SW-620
TK-10 = test system: TK-10
CAKI-1 = test system: CAKI-1
T47D = test system: T47D
K562 = test system: K562
SF-539 = test system: SF-539
HL-60 = test system: HL-60
OVCAR-5 = test system: OVCAR-5
HOP-92 = test system: HOP-92
OVCAR-3 = test system: OVCAR-3
SK-MEL-2 = test system: SK-MEL-2
SNB-75 = test system: SNB-75
LOX IMVI = test system: LOX IMVI
IGROV-1 = test system: IGROV-1
UACC-257 = test system: UACC-257
Malme-3M = test system: Malme-3M
UO-31 = test system: UO-31
A498 = test system: A498

Measured: GI50

Cc1nn(C(=O)c2ccc(Cl)cc2)c2c1C(c1ccco1)SC(=N)N2 (configuration not stated)
> 10 µM: HCT-15
inactive: KM12 > 10 µM | NCI-H23 > 10 µM | 786-0 > 10 µM | SF-295 > 10 µM | PC-3 > 10 µM | SK-MEL-5 > 10 µM | DU-145 > 10 µM | SK-OV-3 > 10 µM | NCI-H226 > 10 µM | HCC 2998 > 10 µM | A549 > 10 µM | CCRF-CEM > 10 µM | UACC-62 > 10 µM | ACHN > 10 µM | MOLT-4 > 10 µM | OVCAR-4 > 10 µM | NCI-H522 > 10 µM | Hs-578T > 10 µM | MCF7 > 10 µM | MDA-MB-231 > 10 µM | BT-549 > 10 µM | RPMI-8226 > 10 µM | SN12C > 10 µM | SNB-19 > 10 µM | U-251 > 10 µM | MDA-MB-435 > 10 µM | RXF 393 > 10 µM | COLO 205 > 10 µM | SR > 10 µM | HOP-62 > 10 µM | OVCAR-8 > 10 µM | HCT-116 > 10 µM | NCI-H460 > 10 µM | SF-268 > 10 µM | M14 > 10 µM | EKVX > 10 µM | MDA-N > 10 µM | NCI/ADR-RES > 10 µM | SK-MEL-28 > 10 µM | HT-29 > 10 µM | SW-620 > 10 µM | TK-10 > 10 µM | CAKI-1 > 10 µM | T47D > 10 µM | K562 > 10 µM | SF-539 > 10 µM | HL-60 > 10 µM | OVCAR-5 > 10 µM | HOP-92 > 10 µM | OVCAR-3 > 10 µM | SK-MEL-2 > 10 µM | SNB-75 > 10 µM | LOX IMVI > 10 µM | IGROV-1 > 10 µM | UACC-257 > 10 µM

CC(=O)NCC1OC2COC(c3ccccc3)OC2C2N=C(c3ccccc3)OC12 (configuration not stated)
43.4 µM: HCT-15
inactive: KM12 40.4 µM | NCI-H23 > 100 µM | 786-0 > 100 µM | SF-295 35.3 µM | PC-3 24.9 µM | SK-MEL-5 39.2 µM | DU-145 > 100 µM | Malme-3M 58.7 µM | SK-OV-3 74.1 µM | NCI-H226 67.5 µM | HCC 2998 66.5 µM | A549 37.8 µM | CCRF-CEM 35.4 µM | UACC-62 45.7 µM | ACHN 45.5 µM | MOLT-4 43.2 µM | OVCAR-4 85.9 µM | Hs-578T 51.5 µM | MCF7 41.9 µM | MDA-MB-231 > 100 µM | BT-549 68.1 µM | RPMI-8226 29.4 µM | SN12C > 100 µM | SNB-19 > 100 µM | U-251 > 100 µM | MDA-MB-435 85.3 µM | RXF 393 41.7 µM | COLO 205 30.7 µM | HOP-62 > 100 µM | OVCAR-8 57 µM | HCT-116 38.4 µM | NCI-H460 60.7 µM | SF-268 81.1 µM | UO-31 39.9 µM | M14 60.8 µM | EKVX 38 µM | MDA-N 39.1 µM | NCI/ADR-RES 42.5 µM | SK-MEL-28 59.6 µM | HT-29 34.8 µM | A498 37.4 µM | SW-620 80.9 µM | TK-10 58.2 µM | CAKI-1 > 100 µM | T47D 19.1 µM | K562 32.6 µM | SF-539 > 100 µM | HL-60 26.7 µM | OVCAR-5 > 100 µM | HOP-92 61.1 µM | OVCAR-3 76 µM | SK-MEL-2 53.6 µM | SNB-75 38.2 µM | LOX IMVI 79.6 µM | UACC-257 57.5 µM
